Measurements: ChEMBL document CHEMBL1145592, “Pleuromutilin derivatives having a purine ring. Part 1: new compounds with promising antibacterial activity against resistant Gram-positive pathogens” (2008)
Converted amounts (≈) assume the structure as drawn.

Key:
Type in all cases: functional
Moraxella catarrhalis = assay: Antibacterial activity against Moraxella catarrhalis K1209
Streptococcus pneumoniae [1] = assay: Antibacterial activity against penicillin-susceptible Streptococcus pneumoniae ATCC 49619
Streptococcus pneumoniae [2] = assay: Antibacterial activity against penicillin-susceptible Streptococcus pneumoniae 1
Streptococcus pneumoniae [3] = assay: Antibacterial activity against penicillin-resistant Streptococcus pneumoniae KT2524
Staphylococcus aureus [4] = assay: Antibacterial activity against methicillin-resistant Staphylococcus aureus KMP9
Haemophilus influenzae = assay: Antibacterial activity against Haemophilus influenzae TH13
Staphylococcus aureus [5] = assay: Antibacterial activity against methicillin-susceptible Staphylococcus aureus Smith infected iv dosed mouse 1 hr after inoculation
Staphylococcus aureus [6] = assay: Antibacterial activity against methicillin-susceptible Staphylococcus aureus Smith
Streptococcus pyogenes = assay: Antibacterial activity against Streptococcus pyogenes ATCC 12344
Staphylococcus aureus [7] = assay: Antibacterial activity against methicillin-susceptible Staphylococcus aureus Smith infected twice iv dosed mouse 1 and 4 hrs after inoculation
Enterococcus faecium = assay: Antibacterial activity against vancomycin-resistant Enterococcus faecium KU1778

SMILES	MIC (Moraxella catarrhalis) [µg/mL]	MIC (Streptococcus pneumoniae [1]) [µg/mL]	MIC (Streptococcus pneumoniae [2]) [µg/mL]	MIC (Streptococcus pneumoniae [3]) [µg/mL]	MIC (Staphylococcus aureus [4]) [µg/mL]	MIC (Haemophilus influenzae) [µg/mL]	ED50 (Staphylococcus aureus [5]) [mg/kg]	MIC (Staphylococcus aureus [6]) [µg/mL]	MIC (Streptococcus pyogenes) [µg/mL]	ED50 (Staphylococcus aureus [7]) [mg/kg]	MIC (Enterococcus faecium) [µg/mL]
C=C[C@]1(C)C[C@@H](OC(=O)CSC2CCN(C(=O)CCn3cnc4c(N5CCNCC5)nc(N)nc43)CC2)[C@]2(C)[C@H](C)CC[C@]3(CCC(=O)[C@@H]32)[C@@H](C)[C@@H]1O	0.25 (≈ 0.333 µM)	0.063 (≈ 0.0839 µM)	0.063 (≈ 0.0839 µM)	0.063 (≈ 0.0839 µM)	0.5 (≈ 0.666 µM)	1 (≈ 1.33 µM)	< 3.13	0.25 (≈ 0.333 µM)	0.032 (≈ 0.0426 µM)	1.51	0.25 (≈ 0.333 µM)
C=C[C@]1(C)C[C@@H](OC(=O)CSC2CCN(C(=O)CCn3cnc4cnc(N)nc43)CC2)[C@]2(C)[C@H](C)CC[C@]3(CCC(=O)[C@@H]32)[C@@H](C)[C@@H]1O	0.25 (≈ 0.375 µM)	0.125 (≈ 0.187 µM)	0.05 (≈ 0.075 µM)	0.063 (≈ 0.0945 µM)	0.05 (≈ 0.075 µM)	2 (≈ 3 µM)	< 3.13	0.05 (≈ 0.075 µM)	0.063 (≈ 0.0945 µM)	–	0.05 (≈ 0.075 µM)
CC[C@]1(C)C[C@@H](OC(=O)CSc2nnc(N)[nH]2)[C@]2(C)[C@H](C)CC[C@]3(CCC(=O)[C@@H]32)[C@@H](C)[C@@H]1O	0.032 (≈ 0.0669 µM)	0.5 (≈ 1.04 µM)	–	0.5 (≈ 1.04 µM)	2 (≈ 4.18 µM)	0.5 (≈ 1.04 µM)	–	0.5 (≈ 1.04 µM)	0.25 (≈ 0.522 µM)	6.88	0.25 (≈ 0.522 µM)
